Laboratory results from patent US4767781A, “Derivatives of beta-amino-gamma-trimethylammonio-butyrate and their production and use” (Takeda Chemical Industries, Ltd., priority 1981, dated 1988).
Where a name gives a salt, the structure may show the parent alone.

Tests used:
[1] = tested on: ketone bodies (β-hydroxybutyrate) in blood; assay: Antiketogenic activity in fasted rats (blood β-hydroxybutyrate); assay type: in vivo, rat (male Sprague-Dawley); conditions: % of control rats; 50 mg/kg oral, 4 hours after dosing, 20 h fasted, n = 5
Experimental: Antiketogenic activities of derivatives of β-amino-γ-trimethylammonio-butyrate were measured as follows: […] Blood […] 4 hours later from a vein of tail and ketone bodies were measured as β-hydroxybutyrate according to the modified method of Williamson [D. H. Williamson et al.; Methods of Enzymatic Analysis, P454 (1968), Academic Press, New York]. The amount of ketone bodies was shown as a relative amount of β-hydroxybutyrate (percentage) to the amount of p-hydroxybutyrate in blood of control rats.

[2] = tested on: fatty acid degradation which depends on carnitine added (rat liver homogenates); assay: Inhibition of carnitine-dependent fatty acid degradation (14CO2 from 1-14C palmitic acid) in rat liver homogenate; assay type: biochemical, rat (SD, male)
Experimental: Then, the fatty acid degradation inhibiting activity of the compound (I), (III), (IV) was determined in accordance with the method described in P.75 "Metabolism of Lipids" which is Vol. 9 of "Seikagaku Jikken Koza" (Text of Biochemical Experiments)compiled by Tokyo Kagaku Dojin, published 1975, using rat liver homogenates. Thus, an SD strain rat (6 weeks of age, male) was fasted for one day and, then, bled to death. The liver was immediately excised and homogenized with 10 times (w/v) of a 0.25 M sucrose solution containing a 5 mM Tris-HCl buffer (pH 7.4), 0.1 mM EDTA and 1 mg/ml bovine serum albumin using a Teflon rod homogenizer. The homogenate was centrifuged at 820 ×g for 10 minutes and the supernatant was further centrifuged at 8,000 ×g for 10 minutes. The resultant pellets were suspended in the same sucrose solution as above to a concentration of 0.2 g wet liver weight/0.5 ml solution and 0.5 ml of the suspension was used as the enzyme solution in the reacrion. […] The inhibitory activity is shown as percentage of inhibitory activity to degradation activity of fatty acid facilitated by the addition of carnitine to that of not added of the compound.

Solubilities = assay type: physicochemical
[3] = Stability in aqueous solution; assay type: physicochemical; conditions: pH 3 to 9, 100° C., 10 minutes
[4] = concentration of drug 2 mM, R2 = --OH
[5] = in petroleum ether, hexane, diethyl ether, benzene, ethyl acetate, chloroform
[6] = in pyridine, acetone, dimethyl sulfoxide, dimethylformamide

SMILES | relative amount of β-hydroxybutylate (%) [1] | Inhibition (%) ([2]; concentration of drug 0.2 mM) | Inhibition (%) [2, 4] | Inhibition (%) ([2]; concentration of drug 2 μM) | Inhibition (%) ([2]; concentration of drug 20 μM) | other results
CN[C@H](CC(=O)[O-])C[N+](C)(C)C [--CH3, [(R)-2-methylammonio-3-carboxypropyl]trimethylammonium . dichloride] | 19.9% | 89% | 100% |  |  | 
CCCC(=O)N[C@H](CC(=O)[O-])C[N+](C)(C)C [--CO(CH2)2 CH3, [(R)-3-carboxy-2-n-butyrylaminopropyl]trimethylammonium picrate] |  |  | 50% |  |  | 
CCCCCCCCCCCCCC(=O)N[C@H](CC(=O)[O-])C[N+](C)(C)C [--CO(CH2)12 CH3, (R)-3-myristoylamino-4-trimethylammoniobutyrate] | 7.9% |  |  |  |  | 
CCCCCCCCCCCCCCCC(=O)N[C@H](CC(=O)[O-])C[N+](C)(C)C [--CO(CH2)14 CH3, (R)-3-palmitoylamino-4-trimethylammoniobutyrate] | 6.7% |  |  | 100% | 100% | 
CCC(=O)N[C@H](CC(=O)O)C[N+](C)(C)C.[Cl-] [--COCH2 CH3, [(R)-3-carboxy-2-propionylaminopropyl]trimethylammonium chloride] |  |  | 44% |  |  | 
CC(=O)N[C@@H](CC(=O)O)C[N+](C)(C)C.[Cl-] [--COCH3 (D-), [(S)-2-acetylamino-3-carboxypropyl]trimethylammonium chloride] |  | 2% | 28% |  |  | 
C[N+](C)(C)C[C@@H](CC(=O)[O-])NC=O [--COH, [(R)-3-carboxy-2-formylaminopropyl]trimethylammonium picrate] | 75.7% | 53% | 84% |  |  | 
C[N+](C)(C)C[C@@H](CC(=O)O)NC(N)=O.[Cl-] [--CONH2, [(R)-3-carboxy-2-carbamoylaminopropyl]trimethylammonium chloride] | 63.2% | 34% | 72% |  |  | 
C[N+](C)(C)C[C@@H](CC(=O)[O-])NC(=O)OCc1ccccc1 [--COOCH2 C6 H5, (R)-3-benzyloxycarbonylamino-4-trimethylammoniobutyrate] | 19.7% | 85% | 98% |  |  | 
C[N+](C)(C)C[C@@H](N)CC(=O)O.Cl.[Cl-] [--H (D-), [(S)-2-ammonio-3-carboxypropyl]trimethylammonium dichloride] |  | 11% | 36% |  |  | 
C[N+](C)(C)C[C@H](N)CC(N)=O [--NH2, [(R)-2-ammonio-3-carbamoylpropyl]trimethylammonium dipicrate] |  | 67% |  | 10% | 27% | 
CCCOC(=O)C[C@@H](N)C[N+](C)(C)C [--O(CH2)2 CH3, [(R)-2-ammonio-3-carbopropoxypropyl]trimethylammonium dipicrate] |  |  |  | 41% | 69% | 
CCOC(=O)C[C@@H](N)C[N+](C)(C)C [--OCH2 CH3, [(R)-2-ammonio-3-carboethoxypropyl]trimethylammonium monochloride monopicrate] | 5.9% |  |  | 37% | 85% | 
COC(=O)C[C@@H](N)C[N+](C)(C)C [--OCH3, [(R)-2-ammonio-3-carbomethoxypropyl]trimethylammonium dipicrate] |  |  |  | 26% | 73% | 
CC(=O)N[C@H](CC(=O)[O-])C[N+](C)(C)C [FA-5859.hydrochloride] |  |  |  |  |  | Solubility (Solubilities; in ethanol, methanol): Soluble; Solubility (Solubilities; [5]): Insoluble; Solubility (Solubilities; [6]): Hardly soluble; Solubility (Solubilities; in water): Readily soluble; Stability [3]: stable
CC(=O)N[C@H](CC(=O)[O-])C[N+](C)(C)C [FA-5859] |  |  |  |  |  | Solubility (Solubilities; in ethanol, methanol): Soluble; Solubility (Solubilities; [5]): Insoluble; Solubility (Solubilities; [6]): Hardly soluble; Solubility (Solubilities; in water): Readily soluble; Stability [3]: Stable
